Experimental data from patent publication US20230022779A1, “DETECTION OF VIABLE MICROORGANISMS IN URINE” (Children's National Medical Center, priority 2021, published 2023).
Where “and” joins values, the source holds several entries; their conditions need not be identical. Equal values may be shown once.

What was measured:
[1] = test system: Klebsiella pneumoniae (ATCC 13883), phoE gene; assay: PMA-qPCR of bacteria grown with ciprofloxacin; format: cell-based; conditions: 1000 μg/mL ciprofloxacin, 3 and 24-hour treatments
Excerpt: The samples underwent PMA treatment, followed by DNA extraction, as described in Example 2. A primer set specific for K. pneumoniae that targets the gene phoE, derived from Shannon et al (doi:10.1016/j.scitotenv. 2007.02.039) was used in conjunction with the samples in a qPCR reaction.

[2] = test system: E. coli (UTI89); assay: Mouse UTI model, ciprofloxacin treatment, urine culture and PMA-PCR; conditions: 10 mg/kg i.p. twice a day for 3 days from day 5 post-inoculation; urine one day after completion

With `O=C(O)c1cn(C2CC2)c2cc(N3CCNCC3)c(F)cc2c1=O` [ciprofloxacin, Ciprofloxacin] as the compound, how does the “CT value of PMA-treated sample compared to non-PMA-treated equivalent” value [1] read?
The value was “greater CT”.

What about the “groups of mice with no growth on non-selective LB agar” value [2] of the same compound?
Its value is 3 of 5 and 3 out of the 5.
